“And” between values parts separate entries of the source, which are not always exact repeats. Equal values may be shown once.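 Exposure lasted 48 hours, with cells grown in 96-well plates and compounds tested at five concentrations. At the GI50, growth is halved. TGI denotes the concentration required for complete inhibition of growth.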
Assays:
Test in all cases: inhibition of tumour cell growth, NCI panel, 48 h
[1] = test system: HCT-116 colon
[2] = test system: SN12C renal
[3] = test system: ACHN renal
[4] = test system: OVCAR-3 ovarian
[5] = test system: UACC-257 melanoma
[6] = test system: MALME-3M melanoma
[7] = test system: SF-539 CNS
[8] = test system: SR leukemia
[9] = test system: HT29 colon
[10] = test system: SNB-19 CNS

SMILES	TGI [1]	TGI [2]	TGI [3]	TGI [4]	TGI [5]	TGI [6]	TGI [7]	TGI [8]	TGI [9]	TGI [10]	GI50 [1]	GI50 [2]	GI50 [3]	GI50 [6] [µM]	GI50 [7] [µM]	GI50 [8]	GI50 [9]	GI50 [10] [µM]	GI50 [4]	GI50 [5] [µM]
CC1(C)Oc2ccccc2[N+]([O-])=C1c1ccccc1	> 100 µM	> 100 µM	> 100 µM	> 100 µM	> 100 µM	> 100 µM	> 100 µM	> 100 µM	> 100 µM	> 100 µM										
COc1cc(=O)oc(/C=C/C=C/C=C/C(C)=C\C2(C)OC(C)C(C)(O)C2O)c1C (stereo not given)	> 100 µM	> 100 µM	> 100 µM	> 100 µM	> 100 µM		> 100 µM	> 100 µM	> 100 µM	> 100 µM										
Cc1nc2ccccc2c(/C=C/c2ccccc2)c1C(=O)/C=C/c1ccccc1	2.56 µM	4.07 µM	3.62 µM			3.24 µM	3.19 µM	> 100 µM	12 µM	2.96 µM	1.11 µM	1.9 µM	1.86 µM	1.76	1.76	1.78 µM	2.61 µM	1.6		
C[C@H](C(O)CC(=O)C(C)(C)O)[C@H]1CC[C@@]2(C)[C@@H]3CC[C@H]4C(C)(C)[C@@H](OC5OC(COC6OC(CO)C(O)C(O)C6O)C(O)C(O)C5O)CC[C@]4(C)C3=CC[C@]12C (stereo not given in full)	> 100 µM	> 100 µM	> 100 µM	> 100 µM	> 100 µM	> 100 µM	> 100 µM	> 100 µM	> 100 µM	> 100 µM										
O=C1CCC(N2C(=O)c3cccc(NCCOCCOCCNC(=O)c4cc5c(o4)C(=O)c4ccccc4C5=O)c3C2=O)C(=O)N1 (stereo not given)	6.9 µM	2.92 µM	6.62 µM	1.03 µM	2.85 µM	0.448 µM	2.99 µM	22.9 µM	> 100 µM	3.52 µM	2.32 µM	1.54 µM	2.3 µM	0.184	1.62	1.76 µM	3.35 µM	1.55	0.295 µM	1.48
N/C(=N\N=C\c1ccc(O)c(O)c1)NO	> 100 µM	> 100 µM	> 100 µM	> 100 µM	> 100 µM	> 100 µM	> 100 µM	> 100 µM	> 100 µM	> 100 µM										
CN1CCN(c2ccc(-c3cccc(CN4CCOCC4)c3)cc2NC(=O)c2c[nH]c(=O)cc2C(F)(F)F)CC1	> 100 µM	> 100 µM	> 100 µM	> 100 µM	31.6 µM	51.4 µM	44.7 µM	63.7 µM	58.3 µM	> 100 µM	16.4 µM	> 100 µM	40.4 µM	21.6	19.5	26.4 µM	17.9 µM	94.7	31.7 µM	16.9
CCOC(=O)NC(=O)c1cn(C2OC(COC(=O)CCCCCCCCC(=O)OCC3OC(n4cc(C(=O)NC(=O)OCC)c(=O)[nH]c4=O)C4OC(C)(C)OC34)C3OC(C)(C)OC32)c(=O)[nH]c1=O (stereo not given)	> 100 µM	> 100 µM	> 100 µM	> 100 µM	> 100 µM	> 100 µM	> 100 µM	> 100 µM	> 100 µM	> 100 µM										
N.N.NCCCCCN.O=C([O-])CC(=O)[O-].O=C([O-])CC(=O)[O-].[Pt+4].[Pt+4]	> 100 µM	> 100 µM	> 100 µM	> 100 µM	> 100 µM	> 100 µM	> 100 µM	> 100 µM	> 100 µM	> 100 µM	> 100 µM	45.6 µM	66.6 µM	> 100	77.4	58.6 µM	> 100 µM	> 100	> 100 µM	> 100
Cc1ccc2c(c1)-c1oc(=O)c(-c3cc4ccccc4oc3=O)cc1C(O)O2 (stereo not given)	33 µM	45 µM	24.4 µM	42.1 µM	92.6 µM	28.2 µM	26 µM	82.8 µM	> 100 µM	71 µM	18 µM	19.7 µM	10.2 µM	10.2	13.3	22.9 µM	40.8 µM	22.6	22.2 µM	34
COc1ccc(C(=O)c2cc(C)c(OC)c(C)c2)c(OC)c1N(C(=O)CCl)C(=O)CCl	10.8 µM	20.9 µM	36.7 µM	1.58 µM	> 88.4 µM	25.4 µM	0.141 µM	> 100 µM	22.5 µM	> 71.1 µM	0.0638 µM	0.0831 µM	0.0773 µM	0.0667	0.0302	0.045 µM	0.307 µM	0.05	0.0398 µM	16.8
Clc1ccc(COC(Cn2ccnc2)c2ccc(Cl)cc2Cl)c(Cl)c1 (stereo not given)	11.3 µM and 18.4 µM and 17.7 µM	11.7 µM and 27.1 µM and 20.7 µM	16.1 µM and 30.1 µM and 24.6 µM	17.1 µM and 25 µM and 21.5 µM	17.7 µM and 30.3 µM and 23.2 µM	17.1 µM and 29.6 µM and 25.1 µM	27.8 µM and 32.7 µM and 27.7 µM	18.3 µM and 12.3 µM and 22.4 µM	15.4 µM and 21.1 µM and 15.5 µM	14.6 µM and 29.6 µM and 29.3 µM	2.87 µM	2.63 µM	4.51 µM	4.52		4.34 µM and 2.47 µM and 5.92 µM	3.55 µM and 7.53 µM and 3.17 µM	3.24	5.35 µM	5.08
COC(=O)[C@H](Cc1cn(C)cn1)NC(=O)[C@@H](NC(=O)Nc1cc(C(F)(F)F)cc(C(F)(F)F)c1)C(C)(C)C	> 10 µM	> 10 µM	> 10 µM	> 10 µM	> 10 µM	> 10 µM	> 10 µM	> 10 µM	> 10 µM	> 10 µM	> 10 µM	> 10 µM	> 10 µM	> 10	> 10	> 10 µM	> 10 µM	> 10	> 10 µM	> 10
C[C@@H]1OC(=O)NN=C1c1ccc(-c2ccc(F)cc2)c(C(F)(F)F)c1	20.6 µM	21.8 µM	23.2 µM	20.3 µM	19.2 µM	25.8 µM	24.3 µM	13 µM	25.4 µM	23.3 µM	5.27 µM	5.63 µM	11.2 µM	12.5	11.2	2.58 µM	10.3 µM	11	6.01 µM	3.72
C/C=C(\C)C(=O)N1c2ccccc2CC1c1c(C)[nH]c2ccccc12 (stereo not given)	> 100 µM	> 100 µM	> 100 µM	> 100 µM	> 100 µM	> 100 µM	> 100 µM	> 100 µM	> 100 µM	> 100 µM										
Nc1nc(CC2(O)CCCCC2)cc(-c2ccccc2)n1	> 51 µM	37.4 µM	> 100 µM	> 63.6 µM	> 78.1 µM		> 100 µM	49.6 µM	> 49.2 µM	> 100 µM										

SMILES	TGI [1]	TGI [2]	TGI [3]	TGI [4]	TGI [5]	TGI [6]	TGI [7]	TGI [8]	TGI [9]	TGI [10]	GI50 [1]	GI50 [2]	GI50 [3]	GI50 [6] [µM]	GI50 [7] [µM]	GI50 [8]	GI50 [9]	GI50 [10] [µM]	GI50 [4]	GI50 [5] [µM]
COc1cc2c(cc1OC)-c1ncc3cc(OC)c(OC)c(OC)c3c1C2	> 100 µM	47.9 µM	> 100 µM	43.9 µM	52.6 µM		34 µM	39.8 µM		> 100 µM	31.8 µM	14.4 µM	32 µM		14	11 µM		79.9	15.9 µM	16.4
O=C(CC1SC(=Nc2ccccc2Cl)NC1=O)Nc1ccc(Cl)cc1 (stereo not given)	> 100 µM	> 100 µM	> 100 µM		> 100 µM	> 100 µM	> 100 µM	69.9 µM	> 100 µM	> 100 µM										
C/C(=N\NS(=O)(=O)c1c(C)cc(C)cc1C)c1ccc[n+]([O-])n1	25.7 µM	29.2 µM	29.9 µM	25.3 µM	22.7 µM		27.7 µM	57.7 µM	36 µM	> 100 µM										
CN(C)C1C(=O)C(C(N)=O)=C(O)C2(O)C(=O)C3=C(O)c4c(O)cccc4C(C)(O)C3CC12 (stereo not given)	39.2 µM and > 100 µM	32.5 µM and > 100 µM	> 100 µM	> 100 µM	> 100 µM	> 100 µM		55.1 µM and > 100 µM	67.9 µM and > 100 µM		23.7 µM and > 100 µM	18.4 µM and > 100 µM	39.9 µM and 82.7 µM			26.4 µM and > 100 µM	27.2 µM and > 100 µM		44.5 µM and > 100 µM	
CC(=O)Oc1cc(Cl)c(OC(C)=O)c2c(OC(C)=O)c(C)c(O[Si](C)(C)C(C)(C)C)cc12	13.6 µM	23.1 µM		29.3 µM	11.6 µM		27.7 µM	19.1 µM		25.7 µM										
C=C1C(=O)O[C@H]2[C@H]1CC/C(Cn1cc(-c3ccsc3)nn1)=C\CC[C@@]1(C)O[C@@H]21	2.76 µM	7.33 µM	2.69 µM	2.28 µM		3.34 µM	3.47 µM	9.39 µM	3.64 µM	23.2 µM	1.16 µM	2.45 µM	1.32 µM	1.61	1.8	0.56 µM	1.66 µM	9.49	1.06 µM	
O=c1c(-c2nc3ccccc3[nH]2)cc2ccccc2n1Cc1cn(Cc2ccccc2Cl)nn1		3.75 µM	3.27 µM	4.17 µM	12.6 µM	3.65 µM	3.66 µM	8.64 µM	4.7 µM	28.3 µM		1.87 µM	1.71 µM	1.62	1.78	2.41 µM	2.2 µM	4.32	2.01 µM	3.18
COC(=O)c1ccc(/C=C/S(=O)(=O)c2ccccc2)cc1	> 100 µM	> 100 µM	> 100 µM	> 100 µM	> 100 µM	> 100 µM	> 100 µM		> 100 µM	> 100 µM										
CN[C@H]1CC[C@]23C[C@]24CC[C@]2(C)[C@@H]([C@H](C)N(C)C)CC[C@@]2(C)[C@@H]4CC[C@H]3C1(C)C	24 µM	29.1 µM	31 µM	33.6 µM	32.8 µM	32.6 µM	26.7 µM		14.2 µM	43.3 µM										
CCC(=O)Nc1ncnc2ncn(C(=O)CC)c12	> 100 µM	> 100 µM	> 100 µM	> 100 µM	> 100 µM	> 100 µM		> 100 µM	> 100 µM	> 100 µM										
CC(CCC(=O)O)c1ccc(Br)cc1 (stereo not given)	> 100 µM	> 100 µM	> 100 µM	> 100 µM	> 100 µM	> 100 µM		> 100 µM	> 100 µM	> 100 µM										
CC(C)c1cc(C(=O)[O-])c(O)c(C(C)C)c1.CC(C)c1cc(C(=O)[O-])c(O)c(C(C)C)c1.CC(C)c1cc(C(=O)[O-])c(O)c(C(C)C)c1.CC(C)c1cc(C(=O)[O-])c(O)c(C(C)C)c1.CC(C)c1cc(C(=O)[O-])c(O)c(C(C)C)c1.CC(C)c1cc(C(=O)[O-])c(O)c(C(C)C)c1.[Cu+2].[Mn+2].[Mn+2]	37.8 µM	49 µM	> 100 µM	10.4 µM	67.1 µM	28.7 µM	39.8 µM		31.4 µM	47.8 µM	21.2 µM	20.9 µM	31.7 µM	15.1	22.1		15.6 µM	20.8	2.87 µM	29.6
CCCCCCC(O)C(O)CCC(O)C1CCC(CCCCC(O)CC2=CC(C)OC2=O)O1 (stereo not given)	25.3 µM	34 µM		5.22 µM and 28.7 µM	41.9 µM	33.8 µM	> 100 µM		6.82 µM	38.8 µM	1.28 µM	16.2 µM	12.4 µM		> 100			14.2	13.7 µM	3.16
CCCCCCCCCCCCC(NC(C)=O)(C(=O)OCC)C(=O)OCC	19.2 µM	22 µM	25.3 µM	25.4 µM	26.1 µM	29.1 µM	33.1 µM	48.2 µM		25.6 µM	5.83 µM	10.2 µM	12.6 µM	12.5	16	6.94 µM		12.8	11.7 µM	11.7
CCN(CC)/[N+]([O-])=N/OCC(C)O (stereo not given)	> 100 µM	> 100 µM	> 100 µM	> 100 µM	> 100 µM		> 100 µM	> 100 µM	> 100 µM	> 100 µM										

Reference: PubChem BioAssay (NCI)
